System: NANOS3-mCherry hESCs
Test: PGC differentiation of NANOS3-mCherry hESCs, flow cytometry for NANOS3-mCherry fluorescent reporter expression
Assay type: cell-based, human
Settings: for efficiency upon SCF/EGF subtraction: SCF/EGF subtraction from D0.5-1.5; for efficiency upon SCF/EGF subtraction / effect of absence of SCF and EGF on PGC differentiation / requirement on the D0.5-D1.5 interval: FIG. 5C; for effect of absence of SCF and EGF on PGC differentiation: absence in the same time window (24 hrs at day 2); for requirement on the D0.5-D1.5 interval: posterior epiblast differentiation into PGCs
Excerpt: In the NANOS3-mCherry hESC line, a 2A-mCherry fluorescent reporter was inserted immediately downstream of the NANOS3 gene without disrupting its coding sequence (Irie et al., 2014). In the SOX17-GFP hESC line, a GFP fluorescent reporter was inserted immediately after the SOX17 start codon, thus functionally invalidating one SOX17 allele (Wang et al., 2011). In the NANOG-2A-YFP hESC line, Cas9 RNP/AAV6-based genome editing (Martin et al., 2019) was used to insert a 2A-iCaspase9-2A-YFP fluorescent reporter immediately downstream of the NANOG gene without disrupting the NANOG coding sequence.
hPSC differentiation into PGCs. Undifferentiated hPSCs were maintained in mTeSR1 + 1% penicillin/streptomycin and enzymatically passaged (Accutase, 1:8-1:12 split) for differentiation. After overnight recovery in mTeSR1 + Thiazovivin (ROCK inhibitor, 5 µM), the following morning, hPSCs were briefly washed (DMEM/F12) and differentiated into posterior epiblast for 12 hours (100 ng/mL Activin + 3 µM CHIR99021 + 10 µM Y-27632) in aRB27 basal media, which comprised Advanced RPMI 1640 medium supplemented with 1% B27 supplement, 0.1 mM non-essential amino acids (NEAA), 100 U/ml Penicillin + 0.1 mg/ml Streptomycin, and 2 mM L-Glutamine (Kobayashi et al., 2017). Subsequently, […], […], […], 100 ng/mL SCF, 50 ng/mL EGF, 1 µM XAV939, and 10 µM Y-27632 for 24 hours (all in aRB27 basal media). For comparison, published PGC differentiation protocols (Sasaki et al., 2015; Kobayashi et al., 2017) were performed as described previously.
Flow cytometry and fluorescence-activated cell sorting (FACS) for cell-surface marker expression. hPSCs or their differentiated derivatives were dissociated using TrypLE Express (Gibco), were washed off the plate with FACS buffer (PBS + 0.1% BSA fraction V [Gibco] + 1 mM EDTA [Gibco] + 1% penicillin/streptomycin [Gibco]) and were pelleted by centrifugation (5 mins, 4° C.). Subsequently, cell pellets were directly resuspended in FACS buffer containing pre-diluted primary antibodies (listed below), thoroughly triturated to ensure a single cell suspension, and primary antibody staining was conducted for 30 mins on ice. Afterwards, cells were washed with an excess of FACS buffer and pelleted again, and this was conducted one more time. Finally, washed cell pellets were resuspended in FACS buffer containing 1.1 µM DAPI (Biolegend), and were strained through a 35 µm filter. Flow cytometry and sorting was conducted on a BD FACSAria II (Stanford Stem Cell Institute FACS Core).

| Molecule | requirement of LIF for the second differentiation stage (FIG. 5E) | efficiency upon addition of LIF (LIF added during D0.5-3.5, readout D3.5, FIG. 5E) | efficiency upon SCF/EGF subtraction (readout D3.5) | effect of absence of SCF and EGF on PGC differentiation | requirement on the D0.5-D1.5 interval | differentiation of posterior epiblast into PGCs (phase II: 3 days in PGC-specifying media after 12 hours WNT agonist (phase I), FIG. 1F) |
| --- | --- | --- | --- | --- | --- | --- |
| LIF: LIF, commonly used to enhance PGC survival (Peprotech 300-05) | dispensable | does not improve efficiency | – | – | – | – |
| EGF: epidermal growth factor, UniProt P01133 (NSDSECPLSHDGYCLHDGVCMYIEALDKYACNCVVGYIGERCQYRDLKWWELR; UniProt P01133 971-1023, looked up) | – | – | enhance efficiency | superfluous | dispensable | – |
| O=c1[nH]c(-c2ccc(C(F)(F)F)cc2)nc2c1CSCC2 [XAV939, 3,5,7,8-Tetrahydro-2-[4-(trifluoromethyl)phenyl]-4H-thiopyrano[4,3-d]pyrimidin-4-one, reference compound] | – | – | – | – | – | promotes differentiation of posterior epiblast into PGCs |
| SCF: stem cell factor, also known as Kit ligand | – | – | enhance efficiency | superfluous | dispensable | – |

Source: US20230242871A1, “GENERATION OF PRIMORDIAL GERM CELLS AND METHODS OF USING THE SAME” (The Board of Trustees of the Leland Stanfor Junior …, priority 2020, published 2023)
